Measured values as given in ChEMBL document CHEMBL4043189, “Design, synthesis, and evaluation of substituted nicotinamide adenine dinucleotide (NAD+) synthetase inhibitors as potential antitubercular agents” (Bioorg Med Chem Lett, 2017).
≈ marks a conversion by molar mass, not a printed value.

What was measured:
[1] = Inhibition of recombinant Mycobacterium tuberculosis glutamine-dependent NadE using NAAD as substrate assessed as residual activity preincubated for 20 mins followed L-glutamine addition measured over 40 mins by spectrophotometric based PNP enzyme coupled assay
[2] = system: Mycobacterium tuberculosis; experiment: Antitubercular activity against NRP-2 stage of Mycobacterium tuberculosis H37Rv ATCC 27294 grown under glycerol free dubos broth after 7 days by microscopic analysis; type: functional; conditions: H37Rv ATCC 27294, 168 h
[3] = system: Mycobacterium tuberculosis; experiment: Antitubercular activity against Mycobacterium tuberculosis H37Rv ATCC 27294 grown under Middlebrook 7H9 broth after 2 weeks by microscopic analysis; type: functional; conditions: H37Rv ATCC 27294, 336 h
[4] = Inhibition of Bacillus anthracis NadE using guanidine-HCl as substrate after 10 mins by HPLC analysis
Bacillus anthracis = experiment: Antibacterial activity against Bacillus anthracis Sterne spore forms measured every hour for 5 hrs by broth microdilution method; type: functional
[5] = Inhibition of recombinant Mycobacterium tuberculosis NH3-dependent NadE using NAAD as substrate assessed as residual activity preincubated for 20 mins followed NH4Cl addition measured over 40 mins by spectrophotometric based PNP enzyme coupled assay
[6] = system: Mycobacterium tuberculosis; experiment: Antitubercular activity against Mycobacterium tuberculosis H37Rv incubated for 7 days under anaerobic condition measured by broth microdilution method; type: functional; conditions: 168 h

Compound	IC50 [1] [µM]	MIC [2] [µg/mL]	MIC [3] [µg/mL]	IC50 [4] [µM]	MIC (Bacillus anthracis) [µM]	IC50 [5] [µM]	MIC [6] [µM]
N#Cc1ccc(NS(=O)(=O)c2ccc(NC(=O)Nc3ccc([N+](=O)[O-])cc3)cc2)cc1	190	37 (≈ 84.6 µM)	37 (≈ 84.6 µM)	–	–	–	–
O=C(Nc1ccc([N+](=O)[O-])cc1)Nc1ccc(S(=O)(=O)Nc2ccc(Cl)c(Cl)c2)cc1	1000	50 (≈ 104 µM)	25 (≈ 51.9 µM)	6.4	–	–	–
O=C(Nc1ccc([N+](=O)[O-])cc1)Nc1ccc(S(=O)(=O)Nc2ccc(O)cc2)cc1	160	50 (≈ 117 µM)	37 (≈ 86.4 µM)	–	–	–	–
NCc1ccc(S(=O)(=O)Nc2ccc(NC(=O)Nc3cccc([N+](=O)[O-])c3)cc2)cc1	–	–	–	15.3	> 240	–	–
NNC(=O)c1ccncc1 [ISONIAZID]	–	0.03 (≈ 0.219 µM)	0.05 (≈ 0.365 µM)	–	–	–	–
O=C(Nc1ccc([N+](=O)[O-])cc1)Nc1ccc(S(=O)(=O)Nc2cccc(C(F)(F)F)c2)cc1	130	50 (≈ 104 µM)	37 (≈ 77 µM)	–	–	> 200	–
O=C(Nc1ccc([N+](=O)[O-])cc1)Nc1ccc(S(=O)(=O)Nc2ccc([N+](=O)[O-])cc2)cc1	90	25 (≈ 54.7 µM)	37 (≈ 80.9 µM)	–	–	> 200	–
O=C(Nc1ccc([N+](=O)[O-])cc1)Nc1ccc(S(=O)(=O)Nc2ccccc2)cc1	125	12.5 (≈ 30.3 µM)	75 (≈ 182 µM)	–	–	> 200	–
O=C(Nc1ccc([N+](=O)[O-])cc1)Nc1ccc(S(=O)(=O)Nc2ccc(Cl)cc2)cc1	520	37 (≈ 82.8 µM)	25 (≈ 55.9 µM)	–	–	–	–
O=C(Nc1ccc([N+](=O)[O-])cc1)Nc1ccc(S(=O)(=O)Nc2cccc([N+](=O)[O-])c2)cc1	170	12.5 (≈ 27.3 µM)	25 (≈ 54.7 µM)	–	–	–	–
O=C(Nc1ccc([N+](=O)[O-])cc1)Nc1ccc(S(=O)(=O)Nc2ccc(F)cc2)cc1	170	25 (≈ 58.1 µM)	19 (≈ 44.1 µM)	–	–	–	–
O=C(Nc1ccc([N+](=O)[O-])cc1)Nc1ccc(S(=O)(=O)Nc2ccc([N+](=O)[O-])c(C(F)(F)F)c2)cc1	190	50 (≈ 95.2 µM)	100 (≈ 190 µM)	–	–	–	–
COc1ccc(NS(=O)(=O)c2ccc(NC(=O)Nc3ccc([N+](=O)[O-])cc3)cc2)cc1	130	50 (≈ 113 µM)	25 (≈ 56.5 µM)	–	–	> 200	–
COC(=O)c1cc2cc(OCc3ccccc3)ccc2n1CCCCCCCOC(=O)Cc1ccc([N+](C)(C)C)cc1	–	–	–	–	–	–	20
O=C(Nc1ccc([N+](=O)[O-])cc1)Nc1ccc(S(=O)(=O)Nc2ccc(I)cc2)cc1	370	50 (≈ 92.9 µM)	37 (≈ 68.7 µM)	–	–	–	–
